# PMC5601007, “Synthesis, Molecular Properties Estimations, and Dual Dopamine D2 and D3 Receptor Activities of Benzothiazole-Based Ligands” (Frontiers in Chemistry, 2017)
# Where a name gives a salt, the structure may show the parent alone.
row,melting point,Structure (SMILES)
1,168 to 170 °C (dec.),"COc1ccccc1N1CCN(CCCOc2ccc3ncsc3c2)CC1 (as salt: salt) [Compound 7, 6-(3-(4-(2-methoxyphenyl)piperazin-1-yl)propoxy) benzothiazole hydrogenoxalat]"
2,162 to 163 °C (dec.),"COc1ccccc1N1CCN(CCOc2ccc3nc(N)sc3c2)CC1 (as salt: oxalate) [Compound 3, 2-amino-6-(2-(4-(2-methoxyphenyl)piperazin-1-yl)ethoxy)benzothiazole trihydrogenoxalate]"
3,159 to 161 °C (dec.),"Clc1nc2ccc(OCCCN3CCN(c4ccccc4)CC3)cc2s1 (as salt: oxalate) [Compound 17, 2-chloro-6-(3-(4-phenylpiperazin-1-yl)propoxy)benzothiazole dihydrogenoxalate]"
4,183 to 185 °C (dec.),"COc1ccccc1N1CCN(CCOc2ccc3nc(Cl)sc3c2)CC1 (as salt: oxalate) [Compound 5, 2-chloro-6-(2-(4-(2-methoxyphenyl)piperazin-1-yl)ethoxy)benzothiazole hydrogenoxalate]"
5,208 to 211 °C (dec.),"c1ccc(N2CCN(CCCOc3ccc4ncsc4c3)CC2)cc1 (as salt: oxalate) [Compound 16, 6-(3-(4-phenylpiperazin-1-yl)propoxy)benzothiazole hydrogenoxalate]"
6,188 °C,"COc1ccccc1N1CCN(CCCOc2ccc3nc(Cl)sc3c2)CC1 (as salt: oxalate) [Compound 8, 2-chloro-6-(3-(4-(2-methoxyphenyl)piperazin-1-yl)propoxy)benzothiazole hydrogenoxalate]"
7,168 °C (dec.),"Clc1nc2ccc(OCCN3CCN(c4ccccc4)CC3)cc2s1 (as salt: oxalate) [Compound 14, 2-chloro-6-(2-(4-phenylpiperazin-1-yl)ethoxy)benzothiazole dihydrogenoxalate]"
8,183 °C,"COc1ccccc1N1CCN(CCOc2ccc3ncsc3c2)CC1 (as salt: oxalate) [Compound 4, 6-(2-(4-(2-methoxyphenyl)piperazin-1-yl)ethoxy)benzothiazole hydrogenoxalate]"
9,215 °C (dec.),"c1ccc(N2CCN(CCOc3ccc4ncsc4c3)CC2)cc1 (as salt: oxalate) [Compound 13, 6-(2-(4-phenylpiperazin-1-yl)ethoxy)benzothiazole hydrogenoxalate]"

row,Structure (SMILES),melting point
1,"COc1ccccc1N1CCN(CCCCOc2ccc3ncsc3c2)CC1 (as salt: salt) [Compound 10, 6-(4-(4-(2-methoxyphenyl)piperazin-1-yl)butoxy) benzothiazole hydrogenoxalat]",159 to 165 °C (dec.)
2,"COc1ccccc1N1CCN(CCCCOc2ccc3nc(Cl)sc3c2)CC1 (as salt: oxalate) [Compound 11, 2-chloro-6-(4-(4-(2-methoxyphenyl)piperazin-1-yl)butoxy)benzothiazole hydrogenoxalate]",126 °C
3,"c1ccc(N2CCN(CCCCOc3ccc4ncsc4c3)CC2)cc1 (as salt: oxalate) [Compound 19, 6-(4-(4-phenylpiperazin-1-yl)butoxy)benzothiazole dihydrogenoxalate]",168 °C (dec.)
4,"Clc1nc2ccc(OCCCCN3CCN(c4ccccc4)CC3)cc2s1 (as salt: oxalate) [Compound 20, 2-chloro-6-(4-(4-phenylpiperazin-1-yl)butoxy)benzothiazole dihydrogenoxalate]",155 to 157 °C (dec.)
5,"COc1ccccc1N1CCN(CCCCOc2ccc3nc(N)sc3c2)CC1 (as salt: oxalate) [Compound 9, 2-amino-6-(4-(4-(2-methoxyphenyl)piperazin-1-yl)butoxy) benzothiazole dihydrogenoxalate]",147 to 150 °C (dec.)
